Results published in ChEMBL document CHEMBL6103626, “Structure-Based Design of New LSD1/EGFRL858R/T790M Dual Inhibitors for Treating EGFR Mutant NSCLC Cancers” (J Med Chem, 2025).

How the values were obtained:
[1] = biological target: T1, LSD1/CoREST complex (Homo sapiens, UniProt O60341); test: Inhibition of full-length recombinant LSD1 (123 to 852 residues)(unknown origin)/CoREST (305 to 482 residues)(unknown origin) extracted from Escherichia coli using H3K4me2 as substrate preincubated for 5 mins followed by substrate addition measured after 30 mins by HRP/Amplex Red based fluorescence assay; assay type: protein-complex assay
[2] = test system: A-431; test: Antiproliferative activity against human A-431 cells expressing wild-type EGFR measured after 72 hrs by SRB assay; conditions: A-431, 72 h
[3] = test system: Osimertinib-resistant NCI-H1975 cell; test: Antiproliferative activity against human Osimertinib-resistant NCI-H1975 cells measured after 72 hrs by SRB assay
[4] = Clearance in Sprague-Dawley rat at 10 mg/kg, iv measured for 24 hrs by LC-MS/MS analysis; assay type: ADME, organism-based; conditions: in vivo
[5] = test system: PC-9; test: Antiproliferative activity against human PC-9 cells expressing EGFR del19 mutant measured after 72 hrs by SRB assay; conditions: PC-9, 72 h
[6] = MRTlast in Sprague-Dawley rat at 40 mg/kg, po measured for 24 hrs by LC-MS/MS analysis; assay type: ADME, organism-based; conditions: in vivo
[7] = Oral bioavailability in Sprague-Dawley rat at 40 mg/kg measured for 24 hrs by LC-MS/MS analysis; assay type: ADME, organism-based; conditions: in vivo
[8] = MRTlast in Sprague-Dawley rat at 10 mg/kg, iv measured for 24 hrs by LC-MS/MS analysis; assay type: ADME, organism-based; conditions: in vivo
[9] = Antiproliferative activity against human PC9 Gefitinib-resistant (GR) cells measured after 72 hrs by SRB assay; conditions: PC9 Gefitinib-resistant (GR) cell
[10] = test system: NCI-H1975; test: Antitumor activity against human NCI-H1975 cells xenografted in athymic nude BALB/c mouse at 3 mg/kg, po daily for 27 days relative to control; assay type: functional; conditions: NCI-H1975, 648 h, time 27 day, read-out: TGI
[11] = biological target: T1, LSD1/CoREST complex; test: Non-competitive inhibition of LSD1/CoREST (unknown origin) using H3K4me2 as substrate incubated for 0.5 hrs by ELISA; assay type: protein-complex assay
[12] = Antiproliferative activity against human PC9-OR cells measured after 72 hrs by SRB assay
[13] = Toxicity in athymic nude BALB/c mouse xenografted with human NCI-H1975 cells assessed as drug tolerance at 3 mg/kg, po daily for 27 days; assay type: organism-based; conditions: in vivo, 648 h, time 27 day
[14] = cells; conditions: Homo sapiens, NCI-H1975, 72 h
[15] = Volume of distribution at steady state in Sprague-Dawley rat at 10 mg/kg, iv measured for 24 hrs by LC-MS/MS analysis; assay type: ADME, organism-based; conditions: in vivo, read-out: Vdss
[16] = AUC (infinity) in Sprague-Dawley rat at 10 mg/kg, iv measured for 24 hrs by LC-MS/MS analysis; assay type: ADME, organism-based; conditions: in vivo
[17] = biological target: Epidermal growth factor receptor (Homo sapiens, UniProt P00533, L858R/T790M); test: Inhibition of EGFR L858R/T790M mutant (unknown origin) using Glu/Tyr as substrate incubated for 1 hr by ELISA
Sequence of Epidermal growth factor receptor (Homo sapiens, UniProt P00533, L858R/T790M) (P00533 25-1210 T790M/L858R limits assumed): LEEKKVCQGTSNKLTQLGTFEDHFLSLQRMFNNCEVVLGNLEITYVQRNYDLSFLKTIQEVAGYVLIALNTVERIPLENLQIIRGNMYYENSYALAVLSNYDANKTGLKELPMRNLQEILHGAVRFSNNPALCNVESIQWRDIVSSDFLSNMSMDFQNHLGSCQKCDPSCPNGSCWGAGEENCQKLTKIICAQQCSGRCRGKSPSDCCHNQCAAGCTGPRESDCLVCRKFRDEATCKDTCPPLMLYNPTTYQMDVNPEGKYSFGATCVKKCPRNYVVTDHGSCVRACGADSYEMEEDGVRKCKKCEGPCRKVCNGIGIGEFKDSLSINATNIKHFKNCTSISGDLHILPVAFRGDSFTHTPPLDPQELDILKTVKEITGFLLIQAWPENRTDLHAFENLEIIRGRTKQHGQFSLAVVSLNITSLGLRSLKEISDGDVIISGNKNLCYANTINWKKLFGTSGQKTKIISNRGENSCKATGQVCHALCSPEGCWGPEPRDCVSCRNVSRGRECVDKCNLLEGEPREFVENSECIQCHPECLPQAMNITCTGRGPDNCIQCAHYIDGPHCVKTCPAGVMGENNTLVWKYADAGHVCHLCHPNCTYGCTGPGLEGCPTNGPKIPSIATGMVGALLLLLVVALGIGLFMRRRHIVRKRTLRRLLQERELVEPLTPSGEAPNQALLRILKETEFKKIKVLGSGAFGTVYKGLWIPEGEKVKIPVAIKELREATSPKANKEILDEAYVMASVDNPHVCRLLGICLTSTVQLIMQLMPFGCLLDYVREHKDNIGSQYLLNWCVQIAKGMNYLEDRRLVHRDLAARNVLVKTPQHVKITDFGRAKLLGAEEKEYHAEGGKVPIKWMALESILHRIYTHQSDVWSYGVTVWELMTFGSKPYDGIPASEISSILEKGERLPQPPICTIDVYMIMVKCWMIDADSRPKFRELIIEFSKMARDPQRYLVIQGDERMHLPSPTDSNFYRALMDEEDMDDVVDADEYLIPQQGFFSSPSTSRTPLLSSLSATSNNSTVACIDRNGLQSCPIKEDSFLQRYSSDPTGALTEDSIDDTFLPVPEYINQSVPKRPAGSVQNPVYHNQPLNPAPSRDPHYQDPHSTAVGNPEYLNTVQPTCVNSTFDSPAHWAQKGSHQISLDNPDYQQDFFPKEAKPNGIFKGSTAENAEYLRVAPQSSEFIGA

[18] = AUClast in Sprague-Dawley rat at 10 mg/kg, iv measured for 24 hrs by LC-MS/MS analysis; assay type: ADME, organism-based; conditions: in vivo
[19] = biological target: Epidermal growth factor receptor (Homo sapiens, UniProt P00533); test: Inhibition of wild-type EGFR (unknown origin) using Glu/Tyr as substrate incubated for 1 hr by ELISA
Sequence of Epidermal growth factor receptor (Homo sapiens, UniProt P00533) (P00533 whole entry): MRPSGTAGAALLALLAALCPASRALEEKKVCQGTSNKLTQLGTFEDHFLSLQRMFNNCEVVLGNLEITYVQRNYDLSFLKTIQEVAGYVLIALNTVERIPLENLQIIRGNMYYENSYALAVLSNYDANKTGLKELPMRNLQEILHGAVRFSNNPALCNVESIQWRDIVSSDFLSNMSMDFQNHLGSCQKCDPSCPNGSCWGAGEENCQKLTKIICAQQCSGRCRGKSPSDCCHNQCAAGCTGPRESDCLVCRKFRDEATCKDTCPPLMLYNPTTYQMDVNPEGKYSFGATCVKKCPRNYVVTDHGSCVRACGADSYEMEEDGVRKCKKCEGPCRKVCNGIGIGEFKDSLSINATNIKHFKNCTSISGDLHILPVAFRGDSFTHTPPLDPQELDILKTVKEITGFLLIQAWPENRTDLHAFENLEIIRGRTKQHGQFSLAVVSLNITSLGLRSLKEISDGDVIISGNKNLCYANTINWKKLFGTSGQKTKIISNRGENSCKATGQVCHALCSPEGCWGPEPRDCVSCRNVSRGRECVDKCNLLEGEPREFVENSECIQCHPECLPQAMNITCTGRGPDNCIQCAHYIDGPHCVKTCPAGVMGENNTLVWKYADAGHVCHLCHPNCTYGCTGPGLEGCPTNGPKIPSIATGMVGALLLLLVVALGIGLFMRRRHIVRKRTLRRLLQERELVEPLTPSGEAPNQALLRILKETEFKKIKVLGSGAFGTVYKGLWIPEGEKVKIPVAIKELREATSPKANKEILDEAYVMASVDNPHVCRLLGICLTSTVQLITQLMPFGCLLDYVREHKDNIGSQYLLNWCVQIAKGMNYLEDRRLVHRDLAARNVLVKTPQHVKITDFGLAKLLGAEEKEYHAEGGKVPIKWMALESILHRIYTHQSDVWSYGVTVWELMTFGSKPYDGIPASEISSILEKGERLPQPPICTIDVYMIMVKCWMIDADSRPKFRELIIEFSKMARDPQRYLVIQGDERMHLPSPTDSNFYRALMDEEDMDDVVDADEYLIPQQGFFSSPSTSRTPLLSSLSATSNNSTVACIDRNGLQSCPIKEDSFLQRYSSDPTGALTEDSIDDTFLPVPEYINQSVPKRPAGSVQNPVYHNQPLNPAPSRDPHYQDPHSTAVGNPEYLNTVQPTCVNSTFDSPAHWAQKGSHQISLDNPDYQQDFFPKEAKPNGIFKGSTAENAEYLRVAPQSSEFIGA

[20] = MRT (infinity) in Sprague-Dawley rat at 10 mg/kg, iv measured for 24 hrs by LC-MS/MS analysis; assay type: ADME, organism-based; conditions: in vivo
[21] = Cmax in Sprague-Dawley rat at 40 mg/kg, po measured for 24 hrs by LC-MS/MS analysis; assay type: ADME, organism-based; conditions: in vivo
[22] = AUClast in Sprague-Dawley rat at 40 mg/kg, po measured for 24 hrs by LC-MS/MS analysis; assay type: ADME, organism-based; conditions: in vivo
[23] = Toxicity in athymic nude BALB/c mouse xenografted with human NCI-H1975 cells assessed as body weight loss at 3 mg/kg, po daily for 27 days; assay type: organism-based; conditions: in vivo, 648 h, time 27 day
[24] = Tmax in Sprague-Dawley rat at 40 mg/kg, po measured for 24 hrs by LC-MS/MS analysis; assay type: ADME, organism-based; conditions: in vivo
[25] = Half life in Sprague-Dawley rat at 10 mg/kg, iv measured for 24 hrs by LC-MS/MS analysis; assay type: ADME, organism-based; conditions: in vivo
[26] = MRT (infinity) in Sprague-Dawley rat at 40 mg/kg, po measured for 24 hrs by LC-MS/MS analysis; assay type: ADME, organism-based; conditions: in vivo
[27] = Half life in Sprague-Dawley rat at 40 mg/kg, po measured for 24 hrs by LC-MS/MS analysis; assay type: ADME, organism-based; conditions: in vivo
[28] = AUC (infinity) in Sprague-Dawley rat at 40 mg/kg, po measured for 24 hrs by LC-MS/MS analysis; assay type: ADME, organism-based; conditions: in vivo

IC50 [1] [nM]	IC50 [2] [nM]	IC50 [3] [nM]	clearance [4] [mL/min/kg]	IC50 [5] [nM]	MRT last at 24 h [6] [h]	bioavailability [7] [%]	MRT last at 24 h [8] [h]	Ki [11] [nM]	IC50 [14] [nM]	Vd [15] [L/kg]	AUC(0-inf) [16] [ng·h/mL]	AUC(0-t) at 24 h [18] [ng·h/mL]	MRT inf [20] [h]	Cmax [21] [ng/mL]	AUC(0-t) at 24 h [22] [ng·h/mL]	Compound	IC50 [9] [nM]	inhibition in vivo at 3 mg/kg [10] [%]	IC50 [12] [nM]	Activity [13]	also measured
8000	290	1600	33.8	930	9.37	59.6	7.17	2340	70	32.3	4940	3740	16	568	8840	[2H]C([2H])([2H])n1cc(-c2ccnc(Nc3cc(NC(=O)C=C)c(N4CCC(C)(N)CC4)cc3OC)n2)c2ccccc21	1370	51.3	850	Non-toxic	IC50 [17]: 6.8 nM; IC50 [19]: 788 nM; Activity [23]: Non-toxic; Tmax [24]: 6 h; half-life [25]: 13 h
600	2460	8930	39.8	6810	6.76	65.1	5.08	257	1750	15.5	4220	4000	6.51	724	10400	[2H]C([2H])([2H])n1cc(-c2ccnc(Nc3cc(NC(=O)C=C)c(N4CC[C@@H](N(C)C)C4)cc3OC)n2)c2ccccc21	5350	60.4	6730	Non-toxic	MRT inf [26]: 8.14 h; half-life [27]: 6.23 h; AUC(0-inf) [28]: 9720 ng·h/mL; Activity [23]: Non-toxic; Tmax [24]: 5 h; half-life [25]: 6.07 h
